In data set [1] the test system is Hepatitis C virus. The experiment in a line: Antiviral activity against HCV 1b in human HuH7cells by luciferase reporter replicon assay. Format: functional, organism-based, Hepacivirus hominis. The note with it: genotype 1b, Huh-7. Background: A reporter such as luciferase makes a cellular process visible.
In data set [2] the test system is Hepatitis C virus. As to the kind of experiment: Inhibition of HCV 1b J4 recombinant NS5B Cdelta 21 polymerase overexpressed in Escherichia coli BL21 (DE3) assessed as [alpha33P]UTP incorporation by scintillation proximity analysis. Also noted: species or system Hepatitis C virus subtype 1b. A general note: In a scintillation proximity assay essentially only radioactivity close to the scintillant gives light.

Data set [3] in a line: Cytotoxicity against human HuH7 cells after 5 days by ATPlite luminescence assay. Format: cell-based, Huh-7.
The nature of data set [4]: Inhibition of HCV NS5B polymerase. The arrangement: species or system Hepacivirus hominis.
The nature of data set [5]: Selectivity index, ratio of CC50 for human HuH7 cells to EC50 for HCV 1b in human HuH7cells. Format: functional, Huh-7.
The nature of data set [6]: Apparent permeability from apical to basolateral side of human Caco-2 cells. Format: ADME, cell-based.

Turning to `CC(=O)N1c2cccc(C)c2NC2=C(C(=O)CC(C)(C)C2)C1c1ccc(Cl)cc1Cl` (stereo not drawn), the EC50 – broadly, the midpoint of the concentration-response curve – with Hepatitis C virus [1] amounted to 14.6 µM. Further, the IC50 (commonly the concentration that gives 50% inhibition) in the data set with Hepatitis C virus [2] stood at 4.78 µM.
`Cc1nc(C(=O)N2c3cccc(O)c3NC3=C(C(=O)CC(C)(C)C3)C2c2ccc(OCc3ccccc3)cc2F)co1` (stereo not drawn) showed an EC50 in the data set with Hepatitis C virus [1] of 1.6 µM. The CC50 (commonly the concentration giving 50% cytotoxicity) at 120 h in data set [3] amounted to 29 µM. Also, the IC50 with Hepatitis C virus [2] came to 0.063 µM.
The matching figures for `CC(=O)N1c2cccc(O)c2NC2=C(C(=O)CC(C)(C)C2)C1c1ccc(OCc2ccccc2)cc1Cl` (stereo not drawn): 1.5 µM, 15 µM and 0.04 µM.
The matching figures for `Cc1cc(C(=O)N2c3cccc(O)c3NC3=C(C(=O)CC(C)(C)C3)C2c2ccc(OCc3ccccc3)cc2F)no1` (stereo not drawn): 1.8 µM, 45 µM and 0.12 µM.
In the data set on Hepatitis C virus [1], `CC(=O)N1c2ncnc(O)c2NC2=C(C(=O)CC(C)(C)C2)C1c1ccc(Cl)cc1Cl` (stereo not drawn) gave a 50% effective concentration (EC50) of over 32 µM. The IC50 with Hepatitis C virus [2] was over 32 µM.
Regarding `CC1(C)CC(=O)C2=C(C1)Nc1c(O)cccc1N(C(=O)c1cccc(Cl)n1)C2c1ccc(OCc2ccccc2)cc1F` (stereo not drawn), the EC50 in the data set with Hepatitis C virus [1] came out at 0.69 µM. Also, in data set [3], the 50% cytotoxic concentration (CC50) at 120 h is 13 µM. The IC50 in the data set on Hepatitis C virus [2] was 0.108 µM.
In the data set on Hepatitis C virus [1], `CC(=O)N1c2ccccc2NC2=C(C(=O)CC(C)(C)C2)C1c1ccc(Cl)cc1Cl` (stereo not drawn) yielded an EC50 of over 32 µM. Further, in the data set with Hepatitis C virus [2], the half-inhibitory concentration (IC50) stood at 3.1 µM.
The matching figures for `CC(=O)N1c2cccc(O)c2NC2=C(C(=O)CC(C)(C)C2)C1c1ccc(Oc2ccccc2)cc1Cl` (stereo not drawn): 9.9 µM and 0.16 µM.
In the data set on Hepatitis C virus [1], `CC(C)C(=O)N1c2cccc(O)c2NC2=C(C(=O)CC(C)(C)C2)C1c1ccc(OCc2ccccc2)cc1F` (stereo not drawn) displayed an EC50 of 1.3 µM. The half-maximal cytotoxic concentration (CC50) at 120 h in data set [3] stood at 14 µM. Further, the IC50 in the data set with Hepatitis C virus [2] worked out at 0.123 µM.
On to `O=C(O)/C(=C/c1ccc(Oc2ccccc2)cc1)NC(=O)c1ccccc1`, for which it took 17 µM to reach half-maximal inhibition in data set [4] (IC50).
`CC(=O)N1c2ncncc2NC2=C(C(=O)CC(C)(C)C2)C1c1ccc(Cl)cc1Cl` (stereo not drawn) yielded an EC50 in the data set on Hepatitis C virus [1] of over 32 µM. The IC50 with Hepatitis C virus [2] came to 0.51 µM.
The matching figures for `CC(=O)N1c2cccc(O)c2NC2=C(C(=O)CC(C)(C)C2)C1c1ccc(Oc2c(F)cccc2Br)cc1Cl` (stereo not drawn): 6.3 µM and 0.12 µM.
`Cc1cc(OCc2ccccc2)ccc1C1C2=C(CC(C)(C)CC2=O)Nc2c(O)cccc2N1C(=O)C(C)C` (stereo not drawn) came in with an EC50 in the data set with Hepatitis C virus [1] of 1.6 µM. In data set [3], this molecule had a CC50 at 120 h of 15 µM. Also, in the data set on Hepatitis C virus [2], the IC50 came to 0.124 µM.
The molecule `CC(=O)N1c2cccc(O)c2NC2=C(C(=O)CC(C)(C)C2)C1c1ccccn1` (stereo not drawn) came in with a concentration for a half-maximal effect (EC50) with Hepatitis C virus [1] of over 32 µM. For the same molecule, in the data set with Hepatitis C virus [2], the half-inhibitory concentration (IC50) was over 32 µM.
Take `CC1(C)CC(=O)C2=C(C1)Nc1c(O)cccc1N(C(=O)c1ccccn1)C2c1ccc(OCc2ccccc2)cc1F` (stereo not drawn): the EC50 with Hepatitis C virus [1] stood at 0.36 µM. The same molecule came in with a half-maximal cytotoxic concentration (CC50) at 120 h in data set [3] of 15 µM. Moreover, the IC50 with Hepatitis C virus [2] worked out at 0.051 µM.
In the case of `O=C(O)/C(=C/c1ccc(Oc2ccccc2Br)cc1)NC(=O)c1ccccc1`, half-maximal inhibition in data set [4] (IC50) required 0.1 µM.
As for `CC1(C)CC(=O)C2=C(C1)Nc1c(O)cccc1N(C(=O)c1ccncn1)C2c1ccc(OCc2ccccc2)cc1F` (stereo not drawn), in the data set on Hepatitis C virus [1], the EC50 was 0.73 µM. In data set [3], this molecule gave a 50% cytotoxic concentration (CC50) at 120 h of over 32 µM. For the same molecule, the IC50 in the data set on Hepatitis C virus [2] was found to be 0.06 µM.
The molecule `CC(=O)N1c2cccc(O)c2NC2=C(C(=O)CC(C)(C)C2)C1c1ccc(Oc2ccccc2Br)cc1Cl` (stereo not drawn) registered a 50% effective concentration (EC50) with Hepatitis C virus [1] of 7.1 µM. For the same molecule, the 50% inhibitory concentration (IC50) with Hepatitis C virus [2] was found to be 0.1 µM.
The matching figures for `CC(=O)N1c2cccc(O)c2NC2=C(C(=O)CC(C)(C)C2)[C@H]1c1ccc(Cl)cc1Cl`: 14.5 µM and 14.4 µM.
The matching figures for `CC(=O)N1c2cccc(O)c2NC2=C(C(=O)CC(C)(C)C2)C1c1ccc(Cl)cc1Cl` (stereo not drawn): 3 µM and 0.1 µM.
As for `CC(=O)N1c2ccccc2NC2=C(C(=O)CC(C)(C)C2)[C@@H]1c1ccc(OCc2ccccc2)c(Cl)c1`, the IC50 in the data set with Hepatitis C virus [2] was found to be 1 µM.
Regarding `Cc1cc(C(=O)N2c3cccc(O)c3NC3=C(C(=O)CC(C)(C)C3)C2c2ccc(OCc3ccccc3)cc2F)nn1C` (stereo not drawn), it took 1 µM to reach a half-maximal effect in the data set on Hepatitis C virus [1] (EC50). This molecule also returned a 50% cytotoxic concentration (CC50) at 120 h in data set [3] of 25 µM. The concentration for half-maximal inhibition (IC50) in the data set with Hepatitis C virus [2] came out at 0.05 µM.
For the molecule `Cc1nc(C(=O)N2c3cccc(O)c3NC3=C(C(=O)CC(C)(C)C3)[C@@H]2c2ccc(OCc3ccccc3)cc2F)c(C)o1`, the EC50 with Hepatitis C virus [1] was found to be 0.27 µM. Further, the “Selectivity Index” value in data set [5] came out at 100. Also, the midpoint of cytotoxicity in data set [3], the CC50 at 120 h, lay at 28 µM. In addition, the 50% inhibitory concentration (IC50) in the data set on Hepatitis C virus [2] came out at 0.029 µM. Also, the apparent permeability from apical to basolateral (Papp A→B) (as a rule, the apparent permeability from the apical to the basolateral side of a cell layer) in data set [6] is 10.9 ×10⁻⁶ cm/s.
`CC1(C)CC(=O)C2=C(C1)Nc1c(O)cccc1N(C(=O)c1cscn1)C2c1ccc(OCc2ccccc2)cc1F` (stereo not drawn) registered an EC50 in the data set with Hepatitis C virus [1] of 0.76 µM. Besides, the CC50 at 120 h in data set [3] was determined as 29 µM. Moreover, the half-maximal inhibitory concentration (IC50) in the data set on Hepatitis C virus [2] came out at 0.039 µM.
In the case of `CC(=O)N1c2ncccc2NC2=C(C(=O)CC(C)(C)C2)C1c1ccc(Cl)cc1Cl` (stereo not drawn), the concentration for a half-maximal effect (EC50) with Hepatitis C virus [1] was over 32 µM. Also, in the data set on Hepatitis C virus [2], the concentration for half-maximal inhibition (IC50) is 8.04 µM.
Consider `CC1(C)CC(=O)C2=C(C1)Nc1c(O)cccc1N(C(=O)c1cccc(F)n1)C2c1ccc(OCc2ccccc2)cc1F` (stereo not drawn), for which, in the data set on Hepatitis C virus [1], the response was half-maximal at 0.86 µM (EC50). Also, the CC50 at 120 h in data set [3] was over 32 µM. Moreover, the IC50 with Hepatitis C virus [2] was 0.077 µM.

These data come from ChEMBL document CHEMBL1138613, “1,5-Benzodiazepine inhibitors of HCV NS5B polymerase” (Bioorg Med Chem Lett, 2009).
